From US20260285875A1, “INHIBITORS OF PARG” (858 Therapeutics, Inc., priority 2023, published 2026) come the findings set out here.

T1 sequence (Q86W56 whole entry): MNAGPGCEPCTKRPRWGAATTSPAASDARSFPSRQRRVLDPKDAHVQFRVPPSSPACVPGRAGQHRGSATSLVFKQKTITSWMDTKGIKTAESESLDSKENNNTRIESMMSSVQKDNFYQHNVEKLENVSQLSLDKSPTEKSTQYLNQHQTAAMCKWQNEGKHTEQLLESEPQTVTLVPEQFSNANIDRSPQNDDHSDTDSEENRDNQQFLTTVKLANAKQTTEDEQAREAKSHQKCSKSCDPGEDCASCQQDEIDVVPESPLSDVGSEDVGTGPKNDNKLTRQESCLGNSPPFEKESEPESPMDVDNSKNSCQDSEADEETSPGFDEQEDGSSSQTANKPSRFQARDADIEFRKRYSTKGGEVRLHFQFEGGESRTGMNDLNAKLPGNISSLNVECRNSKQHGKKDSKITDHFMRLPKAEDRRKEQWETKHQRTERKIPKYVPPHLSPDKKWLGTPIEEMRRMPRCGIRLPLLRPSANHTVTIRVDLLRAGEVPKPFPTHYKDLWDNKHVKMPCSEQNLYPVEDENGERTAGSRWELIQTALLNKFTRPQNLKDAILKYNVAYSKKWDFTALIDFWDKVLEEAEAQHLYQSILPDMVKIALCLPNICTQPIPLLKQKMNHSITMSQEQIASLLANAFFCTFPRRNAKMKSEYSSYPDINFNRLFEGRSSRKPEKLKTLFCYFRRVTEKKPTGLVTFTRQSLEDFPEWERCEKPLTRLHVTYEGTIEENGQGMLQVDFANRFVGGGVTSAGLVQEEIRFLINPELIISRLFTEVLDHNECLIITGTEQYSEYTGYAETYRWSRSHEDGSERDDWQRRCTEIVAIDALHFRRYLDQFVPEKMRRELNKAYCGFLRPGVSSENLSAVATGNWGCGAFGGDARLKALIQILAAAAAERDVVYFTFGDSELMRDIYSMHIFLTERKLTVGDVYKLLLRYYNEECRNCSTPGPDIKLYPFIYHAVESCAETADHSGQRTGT

The test addresses T1, cellular PARG (Homo sapiens, UniProt Q86W56).
T1 construct: endogenous in cells; host or cells: HeLa
Nature of the test: Nuclear PAR accumulation assay (immunofluorescence high-content imaging, MMS-treated HeLa cells). In kind it is cell-based. As to conditions: 1 hour compound then MMS 50 μg/mL for an additional hour. The gist of the method:
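HeLa cells pretreated with compound for 1 h at 37° C, then given 50 μg/mL MMS for another hour. After methanol fixation, PAR was immunostained with DAPI nuclear counterstain; per-nucleus intensity and percent PAR-positive cells were imaged at 20× (≥1,000 cells/well). IC50 from four-parameter logistic fit.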
The term IC50 denotes the concentration that gives 50% inhibition. The molecule `C[C@@H]1CN=C2N(Cc3ccnc(/C=C/CN(C)C)c3)C(=O)c3cc(S(=O)(=O)NC4(C)CC4)ccc3N21` [Example 267, (R,E)-4-((2-(3-(dimethylamino)prop-1-en-1-yl)pyridin-4-yl)methyl)-1-methyl-N-(1-methylcyclopropyl)-5-oxo-1,2,4,5-tetrahydroimidazo[1,2-a]quinazoline-7-sulfonamide] showed an IC50 of 1 to 10 µM.

`[2H]C([2H])(c1cnn(C)c1)N1C(=O)c2cc(S(=O)(=O)NC3(C)CC3)ccc2N2C1=NC[C@H]2C#Cc1cncnc1N` [Example 268, (R)-1-((4-aminopyrimidin-5-yl)ethynyl)-4-((1-methyl-1H-pyrazol-4-yl)methyl-d2)-N-(1-methylcyclopropyl)-5-oxo-1,2,4,5-tetrahydroimidazo[1,2-a]quinazoline-7-sulfonamide]: the IC50 was less than 0.1 µM.

Molecule `[2H]C([2H])(c1cnn(C)c1)N1C(=O)c2cc(S(=O)(=O)NC3(C)CC3)ccc2N2C1=NC[C@H]2C#Cc1cncc(OC)c1` [Example 269, (R)-1-((5-methoxypyridin-3-yl)ethynyl)-4-((1-methyl-1H-pyrazol-4-yl)methyl-d2)-N-(1-methylcyclopropyl)-5-oxo-1,2,4,5-tetrahydroimidazo[1,2-a]quinazoline-7-sulfonamide] came in with an IC50 of less than 0.1 µM.

The molecule `CN(C)C1([C@@H]2CN=C3N(Cc4cnn(C)c4)C(=O)c4cc(S(=O)(=O)NC5(C)CC5)ccc4N32)CC1` [Example 270, (S)-1-(1-(dimethylamino)cyclopropyl)-4-((1-methyl-1H-pyrazol-4-yl)methyl)-N-(1-methylcyclopropyl)-5-oxo-1,2,4,5-tetrahydroimidazo[1,2-a]quinazoline-7-sulfonamide] displayed an IC50 of less than 0.1 µM.

`COc1ccc(CN2C(=O)c3cc(S(=O)(=O)NC4(C)CC4)ccc3N3C2=N[C@H]2CCC[C@H]23)cn1` [Example 273, (7aS,10aR)-6-((6-methoxypyridin-3-yl)methyl)-N-(1-methylcyclopropyl)-5-oxo-6,7a,8,9,10,10a-hexahydro-5H-cyclopenta[4,5]imidazo[1,2-a]quinazoline-3-sulfonamide] showed an IC50 of 0.1 to 1 µM.

The molecule `[2H]C([2H])(c1cnn(C)c1)N1C(=O)c2cc(S(=O)(=O)NC3(C)CC3)c(F)cc2N2CC(C)(C)N=C21` [Example 274, 8-fluoro-2,2-dimethyl-4-((1-methyl-1H-pyrazol-4-yl)methyl-d2)-N-(1-methylcyclopropyl)-5-oxo-1,2,4,5-tetrahydroimidazo[1,2-a]quinazoline-7-sulfonamide] showed an IC50 of less than 0.1 µM.

Molecule `[2H]C([2H])(c1cnn(C)c1)N1C(=O)c2cc(S(=O)(=O)NC3(C)CC3)ccc2N2C1=NC[C@H]2C#Cc1cnc(C)nc1` [Example 275, (R)-4-((1-methyl-1H-pyrazol-4-yl)methyl-d2)-N-(1-methylcyclopropyl)-1-((2-methylpyrimidin-5-yl)ethynyl)-5-oxo-1,2,4,5-tetrahydroimidazo[1,2-a]quinazoline-7-sulfonamide] came in with an IC50 of less than 0.1 µM.

In turn, `CN1CCC[C@H]1[C@@H]1CN=C2N(Cc3cnn(C)c3)C(=O)c3cc(S(=O)(=O)NC4(C)CC4)ccc3N21` [Example 276, (S)-4-((1-methyl-1H-pyrazol-4-yl)methyl)-N-(1-methylcyclopropyl)-1-((S)-1-methylpyrrolidin-2-yl)-5-oxo-1,2,4,5-tetrahydroimidazo[1,2-a]quinazoline-7-sulfonamide] gave an IC50 of less than 0.1 µM.

`Cc1nn(C)cc1C#C[C@@H]1CN=C2N(CC3CC3)C(=O)c3cc(S(=O)(=O)NC4(C)CC4)ccc3N21` [Example 277, (R)-4-(cyclopropylmethyl)-1-((1,3-dimethyl-1H-pyrazol-4-yl)ethynyl)-N-(1-methylcyclopropyl)-5-oxo-1,2,4,5-tetrahydroimidazo[1,2-a]quinazoline-7-sulfonamide]: the IC50 is less than 0.1 µM.

Regarding `C[C@@H]1CN=C2N(CC#Cc3ccc(F)nc3)C(=O)c3cc(S(=O)(=O)NC4(C)CC4)ccc3N21` [Example 278, (R)-4-(3-(6-fluoropyridin-3-yl)prop-2-yn-1-yl)-1-methyl-N-(1-methylcyclopropyl)-5-oxo-1,2,4,5-tetrahydroimidazo[1,2-a]quinazoline-7-sulfonamide], the IC50 was in the range of 0.1 to 1 µM.

`CC(=O)N1CCn2ncc(CN3C(=O)c4cc(S(=O)(=O)NC5(C)CC5)ccc4N4C3=NC[C@H]4C)c2C1` [Example 279, (R)-4-((5-acetyl-4,5,6,7-tetrahydropyrazolo[1,5-a]pyrazin-3-yl)methyl)-1-methyl-N-(1-methylcyclopropyl)-5-oxo-1,2,4,5-tetrahydroimidazo[1,2-a]quinazoline-7-sulfonamide]: the 50% inhibitory concentration (IC50) was 0.1 to 1 µM.

With `[2H]C([2H])(c1cnn(C)c1)N1C(=O)c2cc(S(=O)(=O)NC3(C)CC3)ccc2N2C1=NC[C@H]2C#Cc1ccc(N(C)C)nc1` [Example 280, (R)-1-((6-(dimethylamino)pyridin-3-yl)ethynyl)-4-((1-methyl-1H-pyrazol-4-yl)methyl-d2)-N-(1-methylcyclopropyl)-5-oxo-1,2,4,5-tetrahydroimidazo[1,2-a]quinazoline-7-sulfonamide], the IC50 is less than 0.1 µM.

For `[2H]C([2H])(c1cnn(C)c1)N1C(=O)c2cc(S(=O)(=O)NC3(C)CC3)ccc2N2C1=NC[C@H]2C#CC1=CCNCC1` [Example 281, (R)-4-((1-methyl-1H-pyrazol-4-yl)methyl-d2)-N-(1-methylcyclopropyl)-5-oxo-1-((1,2,3,6-tetrahydropyridin-4-yl)ethynyl)-1,2,4,5-tetrahydroimidazo[1,2-a]quinazoline-7-sulfonamide], the half-maximal inhibitory concentration (IC50) was less than 0.1 µM.

In turn, `[2H]C([2H])(c1cnn(C)c1)N1C(=O)c2cc(S(=O)(=O)NC3(C)CC3)ccc2N2C1=NC[C@H]2C#CC1=CCOCC1` [Example 282, (R)-1-((3,6-dihydro-2H-pyran-4-yl)ethynyl)-4-((1-methyl-1H-pyrazol-4-yl)methyl-d2)-N-(1-methylcyclopropyl)-5-oxo-1,2,4,5-tetrahydroimidazo[1,2-a]quinazoline-7-sulfonamide] showed an IC50 of less than 0.1 µM.

Molecule `[2H]C([2H])(c1cnn(C)c1)N1C(=O)c2cc(S(=O)(=O)NC3(C)CC3)ccc2N2C1=N[C@@H]1C[C@@H](N)C[C@@H]12` [Example 283, (7aR,9R,10aS)-9-amino-6-((1-methyl-1H-pyrazol-4-yl)methyl-d2)-N-(1-methylcyclopropyl)-5-oxo-6,7a,8,9,10,10a-hexahydro-5H-cyclopenta[4,5]imidazo[1,2-a]quinazoline-3-sulfonamide] had an IC50 of 1 to 10 µM.

With `[2H]C([2H])(c1cnn(C)c1)N1C(=O)c2cc(S(=O)(=O)NC3(C)CC3)ccc2N2C1=N[C@H]1C[C@H](N(C)C)C[C@H]12` [Example 284, (7aS,9S,10aR)-9-(dimethylamino)-6-((1-methyl-1H-pyrazol-4-yl)methyl-d2)-N-(1-methylcyclopropyl)-5-oxo-6,7a,8,9,10,10a-hexahydro-5H-cyclopenta[4,5]imidazo[1,2-a]quinazoline-3-sulfonamide], the IC50 is 1 to 10 µM.

Turning to `[2H]C([2H])(c1cnn(C)c1)N1C(=O)c2cc(S(=O)(=O)NC3(C)CC3)ccc2N2C1=N[C@@H]1C[C@@H](N(C)C)C[C@@H]12` [Example 285, (7aR,9R,10aS)-9-(dimethylamino)-6-((1-methyl-1H-pyrazol-4-yl)methyl-d2)-N-(1-methylcyclopropyl)-5-oxo-6,7a,8,9,10,10a-hexahydro-5H-cyclopenta[4,5]imidazo[1,2-a]quinazoline-3-sulfonamide], the IC50 lay within 0.1 to 1 µM.

On to `[2H]C([2H])(c1cnn(C)c1)N1C(=O)c2cc(S(=O)(=O)NC3(C)CC3)c(NCc3ccc(OC)nc3)cc2N2C1=N[C@H]1CCC[C@H]12` [Example 286, (7aS,10aR)-2-(((6-methoxypyridin-3-yl)methyl)amino)-6-((1-methyl-1H-pyrazol-4-yl)methyl-d2)-N-(1-methylcyclopropyl)-5-oxo-6,7a,8,9,10,10a-hexahydro-5H-cyclopenta[4,5]imidazo[1,2-a]quinazoline-3-sulfonamide], for which the IC50 was less than 0.1 µM.

As for `[2H]C([2H])(c1cnn(C)c1)N1C(=O)c2cc(S(=O)(=O)NC3(C)CC3)c(NCC#Cc3cncnc3)cc2N2C1=N[C@H]1CCC[C@H]12` [Example 287, (7aS,10aR)-6-((1-methyl-1H-pyrazol-4-yl)methyl-d2)-N-(1-methylcyclopropyl)-5-oxo-2-((3-(pyrimidin-5-yl)prop-2-yn-1-yl)amino)-6,7a,8,9,10,10a-hexahydro-5H-cyclopenta[4,5]imidazo[1,2-a]quinazoline-3-sulfonamide], the IC50 is less than 0.1 µM.

Molecule `Cn1ncc(C#C[C@@H]2CN=C3N(Cc4cnn5c4CNCC5)C(=O)c4cc(S(=O)(=O)NC5(C)CC5)ccc4N32)n1` [Example 288, (R)-1-((2-methyl-2H-1,2,3-triazol-4-yl)ethynyl)-N-(1-methylcyclopropyl)-5-oxo-4-((4,5,6,7-tetrahydropyrazolo[1,5-a]pyrazin-3-yl)methyl)-1,2,4,5-tetrahydroimidazo[1,2-a]quinazoline-7-sulfonamide] showed an IC50 of less than 0.1 µM.

For `[2H]C([2H])(c1cnn(C)c1)N1C(=O)c2cc(S(=O)(=O)NC3(C)CC3)c(F)cc2N2C1=NC[C@H]2C#C` [Example 289, (R)-1-ethynyl-8-fluoro-4-((1-methyl-1H-pyrazol-4-yl)methyl-d2)-N-(1-methylcyclopropyl)-5-oxo-1,2,4,5-tetrahydroimidazo[1,2-a]quinazoline-7-sulfonamide], the IC50 was less than 0.1 µM.

With `CC1(NS(=O)(=O)c2ccc3c(c2)C(=O)N(Cc2cnn4c2CNCC4)C2=N[C@H]4CCC[C@H]4N23)CC1` [Example 290, (7aS,10aR)-N-(1-methylcyclopropyl)-5-oxo-6-((4,5,6,7-tetrahydropyrazolo[1,5-a]pyrazin-3-yl)methyl)-6,7a,8,9,10,10a-hexahydro-5H-cyclopenta[4,5]imidazo[1,2-a]quinazoline-3-sulfonamide], the IC50 lay within 0.1 to 1 µM.
